Results taken from patent US10857105B2, “Compounds and compositions for intracellular delivery of therapeutic agents” (ModernaTX, Inc., priority 2017, dated 2020).
Each block holds one compound with its values, some of them ahead of it.

Legend:
[1] = system: hEPO mRNA; experiment: hEPO expression after intravenous administration to rats; assay type: in vivo, rat; conditions: for Lipid/MC3 hEPO expression: 6 hours after administration; for hEPO expression, 0.25 h / hEPO expression, 0.5 h / hEPO expression, 1 h / hEPO expression, 2 h / hEPO expression, 4 h / hEPO expression / hEPO expression, 8 h / hEPO expression, 24 h / hEPO expression, 48 h: rat; for Lipid/MC3 hEPO conc. ratio, 0.2 mpk / Lipid/MC3 hEPO conc. ratio, 2 mpk: rats
Method: The expression of hEPO and cytokine induction in rats intravenously administered a nanoparticle composition at a dose of 2.0 mpk was measured at 6 h.
The expression of hEPO in rats intravenously administered a nanoparticle composition at a dose of 0.2 mpk or 2.0 mpk was measured at 6 hours. Table 16 summarize the ratio of hEPO expression levels using various nanoparticle compositions as compared to the hEPO expression level using MC3 formulation and the lipid levels in the liver measured 48 hours after administration, as described above. Tables 17 and 18 summarize the lipid levels in the liver and spleen measured 48 hours after administration of Compounds 28, 33, 53, and 54. Liver and spleen levels represent the average values calculated for 3 rats in each group. As is shown in Tables 17 and 18, less than 10% of Compounds 28, 33, 53, and 54 remained in the liver after 48 hours, while greater than 60% of MC3 remained.
Table 19A summarizes the hEPO expression, IP-10 induction, liver and spleen levels, and alanine aminotransferase (ALT) and aspartate aminotransferase (AST) measured upon intravenous administration of formulations including Compounds 48, 49, and 50 to rat at 0.2 and 2 mpk and hEPO mRNA. hEPO concentrations were measured 6 hours after administration, while cytokine induction and liver and spleen levels were measured 48 hours after administration. hEPO and IP-10 concentrations are presented in pg/ml, while liver levels are provided in ng/g. ALT and AST levels are presented in international units.
The expression of hEPO induced by intravenous administration to rats of nanoparticle compositions at various doses was measured at 2, 4, 6, 8, 24, and 48 hour time points. FIGS. 3-6 respectively summarize the hEPO expression measured upon intravenous administration of formulations including Compounds 26, 18, 25, and MC3 to rat at various doses. The lipid levels of Compound 26 in the liver after 48 hours were about 19%.
The expression of hEPO and lipid levels in the liver and spleen in rats intravenously administered a nanoparticle composition at a dose of 0.2 mpk was measured at various time points. Compounds 18 and 25 were selected for comparison with MC3. Lipids were formulated according to the standard MC3 formulation described above. Rats were administered intravenously a single 0.2 mpk dose and expression monitored at 0.25, 0.5, 1, 2, 4, 8, 24, and 48 hours after administration.

[2] = Clinical chemistry and hematology in rat 48 h after intravenous 2 mpk dose; assay type: in vivo; conditions: 48 h post dose
Method: Sample formulations of nanoparticle compositions including different lipids were administered intravenously to rat at a dose of 2 mpk. The expression of various clinical markers was evaluated at 48 h post dose and compared to that induced by administration of MC3 formulations or phosphate buffered saline (PBS).

[3] = Encapsulation efficiency of RNA in nanoparticle compositions (RIBOGREEN assay); assay type: physicochemical; conditions: for % EE: compositions for subcutaneous administration
Procedure, shortened: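 Lipid nanoparticles (ionisable lipid:DSPC:cholesterol:PEG-DMG 50:10:38.5:1.5 mol %) carrying N1-methylpseudouridine luciferase or hEPO mRNA diluted to about 5 μg/mL in TE, pH 7.5, with or without 2% Triton X-100, 15 min at 37° C. RiboGreen fluorescence (ex ~480, em ~520 nm) blank-subtracted; free RNA = intact/disrupted signal.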

[4] = Pharmacokinetic study of lipids in plasma, liver and spleen (compound 18, compound 25, MC3); conditions: for HL: table titled mouse; for AUC / Cmax / Tmax / half-life: male, Sprague-Dawley, rat, iv; for clearance from liver tissue: rat pharmacokinetic study, 24-48 hours
[5] = Table 1A, lipid:DSPC:cholesterol:PEG-DMG 50:10:38.5:1.5 mol %
[6] = Table 1B, formulated with hEPO mRNA

Concentration, Alanine aminotransferase [2]: 53.5 | Concentration, Aspartate aminotransferase [2]: 87.5 | Concentration, Lymphocytes [2]: 12051 | Concentration, Monocytes [2]: 2103 | Concentration, Neutrophils [2]: 3388.5 | EE [3, 5]: 92.25%
Compound: CCCCCCCCCN(CCO)CCCCCCCC(=O)OC(CCCCCCCC)CCCCCCCC [Compound 3, Heptadecan-9-yl 8-((2-hydroxyethyl)(nonyl)amino)octanoate]
hEPO expression ([1]; intravenous, 6 h, 2 mpk): 1.74e+07 pg/mL | Lipid/MC3 hEPO conc. ratio, 0.2 mpk ([1]; intravenous 0.2 mpk, 6 hours): 2.41 | Lipid/MC3 hEPO conc. ratio, 2 mpk ([1]; intravenous 2 mpk, 6 hours): 1.21

EE [3, 5]: 96.55%
Compound: CCCCCCCCC(C)OC(=O)CCCCCCCN(CCO)CCCCCCCC(=O)OC(CCCCCCCC)CCCCCCCC (centres unmarked) [Compound 48, decan-2-yl 8-((8-(heptadecan-9-yloxy)-8-oxooctyl)(2-hydroxyethyl)amino)octanoate]
Lipid/MC3 hEPO conc. ratio, 0.2 mpk ([1]; intravenous 0.2 mpk, 6 hours): 5.39 | Lipid/MC3 hEPO conc. ratio, 2 mpk ([1]; intravenous 2 mpk, 6 hours): 3.84

Concentration, Alanine aminotransferase [2]: 52 | Concentration, Aspartate aminotransferase [2]: 124.5 | Concentration, Lymphocytes [2]: 15924 | Concentration, Monocytes [2]: 2122 | Concentration, Neutrophils [2]: 1998 | EE [3, 5]: 95.80% | EE [3, 6]: 97.92% | half-life ([4]; liver): 6.9 h
Compound: CCCCCCCCCCCOC(=O)CCCCCN(CCO)CCCCCCCC(=O)OC(CCCCCCCC)CCCCCCCC [Compound 25, Heptadecan-9-yl 8-((2-hydroxyethyl)(6-oxo-6-(undecyloxy)hexyl)amino)octanoate]
hEPO expression, 0.25 h ([1]; intravenous 0.2 mpk): 0 pg/mL | hEPO expression, 0.5 h ([1]; intravenous 0.2 mpk): 19553 pg/mL | hEPO expression, 1 h ([1]; intravenous 0.2 mpk): 434299 pg/mL | hEPO expression, 2 h ([1]; intravenous 0.2 mpk): 2042807 pg/mL | hEPO expression, 4 h ([1]; intravenous 0.2 mpk): 3176560 pg/mL | hEPO expression, 8 h ([1]; intravenous 0.2 mpk): 2631633 pg/mL | hEPO expression, 24 h ([1]; intravenous 0.2 mpk): 869374 pg/mL | hEPO expression, 48 h ([1]; intravenous 0.2 mpk): 103089 pg/mL | hEPO expression ([1]; intravenous, 6 h, 2 mpk): 3.05e+07 pg/mL | Lipid/MC3 hEPO conc. ratio, 0.2 mpk ([1]; intravenous 0.2 mpk, 6 hours): 2.41 | Lipid/MC3 hEPO conc. ratio, 2 mpk ([1]; intravenous 2 mpk, 6 hours): 2.13 | clearance from liver tissue ([4]; liver): efficiently cleared from liver tissue by 24 hours

Concentration, Alanine aminotransferase [2]: 51.5 | Concentration, Aspartate aminotransferase [2]: 90 | Concentration, Lymphocytes [2]: 14100 | Concentration, Monocytes [2]: 1834 | Concentration, Neutrophils [2]: 1790.5
Compound: CCCCCC/C=C\COC(=O)CCCCCCCN(CCO)CCCCCCCC(=O)OC(CCCCCCCC)CCCCCCCC [Compound 24, Heptadecan-9-yl (Z)-8-((2-hydroxyethyl) (8-(non-2-en-1-yloxy)-8-oxooctyl)amino)octanoate]
hEPO expression ([1]; intravenous, 6 h, 2 mpk): 1.44e+07 pg/mL | Lipid/MC3 hEPO conc. ratio, 0.2 mpk ([1]; intravenous 0.2 mpk, 6 hours): 1.75 | Lipid/MC3 hEPO conc. ratio, 2 mpk ([1]; intravenous 2 mpk, 6 hours): 1.01

Concentration, Alanine aminotransferase [2]: 56 | Concentration, Aspartate aminotransferase [2]: 95 | Concentration, Lymphocytes [2]: 10408.5 | Concentration, Monocytes [2]: 877 | Concentration, Neutrophils [2]: 3195 | EE [3, 5]: 95.69% | EE [3, 6]: 96.32%
Compound: CCCCCCCCCOC(=O)CCCCCCCN(CCO)CCCCCCCOC(=O)C(CCCCCCCC)CCCCCCCC [Compound 30, 7-((2-Hydroxyethyl)(8-(nonyloxy)-8-oxooctyl)amino)heptyl 2-octyldecanoate]
hEPO expression ([1]; intravenous, 6 h, 2 mpk): 1.63e+07 pg/mL | Lipid/MC3 hEPO conc. ratio, 0.2 mpk ([1]; intravenous 0.2 mpk, 6 hours): 1.87 | Lipid/MC3 hEPO conc. ratio, 2 mpk ([1]; intravenous 2 mpk, 6 hours): 1.14

The next lines start with the compound.

Compound: CCCCCC=CCC=CCCCCCCCCC(CCCCCCCCC=CCC=CCCCCC)OC(=O)CCCN(C)C (centres unmarked) [MC3, heptatriaconta-6,9,28,31-tetraen-19-yl 4-(dimethylamino)butanoate, reference compound]
Lipid/MC3 hEPO expression ([1]; 0.2 mpk dose to rat): 1 | Lipid/MC3 hEPO expression ([1]; 2 mpk dose to rat): 1 | [hEPO] ([1]; Table 19B): 14800 pg/mL | hEPO AUC ([1]; Table 19B): 3.46e+07 pg·h/mL | hEPO expression, 0.25 h ([1]; intravenous 0.2 mpk): 0 pg/mL | hEPO expression, 0.5 h ([1]; intravenous 0.2 mpk): 42457 pg/mL | hEPO expression, 1 h ([1]; intravenous 0.2 mpk): 93720 pg/mL | hEPO expression, 2 h ([1]; intravenous 0.2 mpk): 524093 pg/mL | hEPO expression, 4 h ([1]; intravenous 0.2 mpk): 601307 pg/mL | hEPO expression ([1]; intravenous 0.2 mpk, 6 hours): 7.68e+06 pg/mL | hEPO expression, 8 h ([1]; intravenous 0.2 mpk): 1536833 pg/mL | hEPO expression, 24 h ([1]; intravenous 0.2 mpk): 703619 pg/mL | hEPO expression, 48 h ([1]; intravenous 0.2 mpk): 64687 pg/mL | hEPO expression ([1]; intravenous 2 mpk, 6 hours): 9.29e+06 pg/mL | hEPO expression ([1]; intravenous, 6 h, 2 mpk): 1.33e+07 pg/mL | Lipid/MC3 hEPO conc. ratio, 0.2 mpk ([1]; intravenous 0.2 mpk, 6 hours): 1 | Lipid/MC3 hEPO conc. ratio, 2 mpk ([1]; intravenous 2 mpk, 6 hours): 1 | Concentration, Alanine aminotransferase [2]: 339 | Concentration, Aspartate aminotransferase [2]: 325 | Concentration, Lymphocytes [2]: 19976 | Concentration, Monocytes [2]: 1429 | Concentration, Neutrophils [2]: 4962.5 | EE [3, 5]: 97.3% | EE [3, 6]: 99.01% | % EE ([3]; Table 1C): 98.2% | % EE ([3]; Table 1D, # formulated with hEPO mRNA): 98.7% | % EE ([3]; Table 1E): 98% | EE ([3]; lipid:DSPC:Chol:PEG-DMG (50:10:38.5:1.5), hEPO mRNA): 97.22% | EE ([3]; nanoparticle composition with hEPO mRNA (Table 30)): 91.66% | HL ([4]; Liver, * = 2 terminal datapoints estimation): 52.5* hr | HL ([4]; Plasma): 8.4 h | HL ([4]; Spleen, * = 2 terminal datapoints estimation): 33.3* hr | AUC ([4]; liver): 1410 µg·h/mL | Cmax ([4]; liver): 33000 ng/mL | Tmax ([4]; liver): 24 h | half-life ([4]; liver): > 50 h | AUC ([4]; plasma): 69.1 µg·h/mL | Cmax ([4]; plasma): 28900 ng/mL | Tmax ([4]; plasma): 0.5 h | AUC ([4]; spleen): 787 µg·h/mL | Cmax ([4]; spleen): 21200 ng/mL | Tmax ([4]; spleen): 8 h | clearance from liver tissue ([4]; liver): still present at high concentrations at 48 hours

Compound: CCCCCCCCCOC(=O)CCCN(CCO)CCCCCCCC(=O)OC(CCCCCCCC)CCCCCCCC [Compound 26, Heptadecan-9-yl 8-((2-hydroxyethyl)(4-(nonyloxy)-4-oxobutyl)amino) octanoate]
Lipid/MC3 hEPO conc. ratio, 2 mpk ([1]; intravenous 2 mpk, 6 hours): 4.95

Compound: Nonyl 8-((6-(heptadecan-9-yloxy)-6-oxohexyl)(2-hydroxyethyl)amino) octanoate [Compound 27]
EE [3, 5]: 94.27%

Compound: CCCCCCCCCOC(=O)CCCCCCCN(CCO)CCCCCCCC(=O)OC(CCCCCCCC)CCCCCCCC [Compound 18, Heptadecan-9-yl 8-((2-hydroxyethyl)(8-(nonyloxy)-8-oxooctyl)amino)octanoate]
hEPO expression, 0.25 h ([1]; intravenous 0.2 mpk): 20227 pg/mL | hEPO expression, 0.5 h ([1]; intravenous 0.2 mpk): 20743 pg/mL | hEPO expression, 1 h ([1]; intravenous 0.2 mpk): 194353 pg/mL | hEPO expression, 2 h ([1]; intravenous 0.2 mpk): 238107 pg/mL | hEPO expression, 4 h ([1]; intravenous 0.2 mpk): 514807 pg/mL | hEPO expression, 8 h ([1]; intravenous 0.2 mpk): 915320 pg/mL | hEPO expression, 24 h ([1]; intravenous 0.2 mpk): 412051 pg/mL | hEPO expression, 48 h ([1]; intravenous 0.2 mpk): 52361 pg/mL | hEPO expression ([1]; intravenous, 6 h, 2 mpk): 9.96e+06 pg/mL | Lipid/MC3 hEPO conc. ratio, 2 mpk ([1]; intravenous 2 mpk, 6 hours): 0.81 | EE [3, 6]: 96.95% | clearance from liver tissue ([4]; liver): efficiently cleared from liver tissue by 24 hours
